Results: US9157064B2, “Methods for generating inner ear cells in vitro” (The Board of Trustees of the Leland Stanford Junior …, priority 2011, dated 2015)
“Also recorded” adds a separate entry of the source.

How the values were obtained:
Assay type in all cases: cell-based, mouse
iPSC-derived cultures = experiment: Otic induction of iPSC-derived embryoid body cultures (Pax2 immunostaining); conditions: iPSC derivatives; not treated with any of the three initial factors, but treated with bFGF
Protocol: (§1) Embryoid bodies were transferred into fibronectin-coated 4-well dishes (Greiner) at 30 embryoid bodies per well and cultured for three days in DMEM/F12 (Invitrogen, mixed 1:1) supplemented with N2 and B27 (Invitrogen), bFGF (R&D Systems, 25 ng/ml), heparin sulfate (Sigma, 50 ng/ml), and ampicillin ([…]). FGF3 (recombinant human FGF-3, R&D Systems) and FGF10 (recombinant human FGF-10, R&D Systems) were used at 25 ng/ml in parallel experiments. The FGF receptor antagonist SU5402 (a gift from Pfizer R&D) was used at […]. After FGF-treatment, the cells were detached using 0.05% trypsin/EDTA (Sigma) in PBS, mildly triturated, and passed 1:10 into individual wells of 4-well dishes coated with either fibronectin, gelatin, MEFs, or mitotically inactivated embryonic (E18) chicken utricle stromal cells. Utricle stromal cells were prepared from 20 utricles whose sensory epithelia were removed after 40 min treatment with 0.5 mg/ml thermolysin (Sigma) in DMEM/F12 at 37 C. After addition of 5% serum, the sensory epithelia were removed and used in unrelated experiments. […]
(§2) For immunocytochemistry, the cells were fixed with 4% paraformaldehyde in PBS for 15 min at room temperature. […] Images were acquired with a Zeiss Axioimager/LSM 5 Exciter fluorescence and confocal microscope. […]

ESC-derived cultures = experiment: Otic induction of ESC-derived embryoid body cultures (Pax2 immunostaining); conditions: ESC derivatives; not treated with any of the three initial factors, but treated with bFGF
Protocol: as §1, §2

[1] = test system: ESC-derived hair cell-like cell; experiment: Mechanically induced currents of ESC-derived hair cell-like cells (patch clamp); conditions: local application of 1 mM DHSM to hair bundles, then mechanical stimulation
Protocol: (§3) nGFP-expressing hair cell-like cells were identified by fluorescence microscopy, and nearby hair bundle-like protrusions were imaged with a […] objective with brightfield optics. Recordings were conducted with an Axoclamp 200a (Axon Instruments) amplifier, interfaced with a DIGIDATA® 1332 board (Axon), and jClamp Software (Scisoft). Mechanical stimulation was done with a stiff glass probe attached to a piezo stack.
(§4) More specifically, cultured cells were placed onto the stage of an OLYMPUS® BX 51 fixed stage upright microscope and imaged using a 100× dipping objective using brightfield optics. Images were collected using a C2400 NARISHIGE® analog camera coupled via a framegrabber to a PC computer using Image J software. Soda glass electrodes, coated with ski wax (MR. ZOG'S SEX WAX®) to limit stray capacitance, of resistances 3-5MΩ, were used to record from both ES and iPS cells. The culture medium was replaced during electrophysiological recordings with a solution containing (in mM) 140 NaCl, 5 KCl, 1 MgCl2, 2.5 CaCl, 10 HEPES, 6 glucose, 2 pyruvate, 2 ascorbate, 2 creatine. […] Data was analyzed with ORIGIN® software (Microcal). […]
(§5) Adaptation is a complex process in which hair bundle dynamic range is enhanced and sensitivity maintained over large displacements (Eatock, 2000). […] The fast time constant measured was 0.5±0.4 ms (n=5) and the slow was 11±5 ms (n=5). […]

[2] = test system: iPSC-derived hair cell-like cell; experiment: Mechanically induced currents of iPSC-derived hair cell-like cells (patch clamp); conditions: local application of 1 mM DHSM to hair bundles, then mechanical stimulation
Protocol: as §3, §4, §5

[3] = test system: ESC-derived embryoid bodies; experiment: Suppression of meso- and endodermal differentiation in ESC-derived embryoid bodies (Brachyury/GATA6 immunostaining); conditions: single factor
Protocol: (§6) ES cell line C9 and iPS cell line #25-5 were used for all guidance experiments. MEF feeder cells were removed either by weaning the cells off for several passages or by pre-culturing the cells for 40 min allowing MEFs to attach. For embryoid body formation, the cells were dissociated with 0.25% trypsin-EDTA (Invitrogen) and cultured in poly(2-hydroxyethyl methacrylate)-coated 6-well cell suspension plates (Greiner). Coating was done by covering the plates with 1 ml of 2% poly(2 hydroxyethyl methacrylate) (Sigma) solution in 1:1 ethanol/acetone. After 2 min, the solution was completely aspirated and the plates were dried with open lid for 20 min in a cell culture cabinet. After three washes with PBS, the ES and iPS cells were added at a density of 50 cells/ml and cultured for 5 days in DMEM (Invitrogen) with 15% FBS, 0.1 mM MEM non-essential amino acids, […] 2-mercaptoethanol, 2 mM L-glutamine and […] ampicillin. For otic induction experiments, the following growth factors or reagents were added to the medium: recombinant mouse Dickkopf related protein 1 (Dkk-1) at 100 ng/ml (R&D Systems), SIS3 at […] (Sigma), and IGF1 at 10 ng/ml (Sigma). […]
as §2

[4] = test system: iPSC-derived embryoid bodies; experiment: Suppression of meso- and endodermal differentiation in iPSC-derived embryoid bodies (Brachyury/GATA6 immunostaining); conditions: single factor
Protocol: as §6, §2

bFGF: fibroblast growth factor FGF2 (bFGF), general otic inducer
Pax2-expressing cells (iPSC-derived cultures): 0.1±0.09%
Pax2-expressing cells (ESC-derived cultures): 0.05±0.04%

CN[C@@H]1[C@H](O[C@H]2[C@H](O[C@H]3[C@H](O)[C@@H](O)[C@H](NC(=N)N)[C@@H](O)[C@@H]3NC(=N)N)O[C@@H](C)[C@]2(O)CO)O[C@@H](CO)[C@H](O)[C@H]1O [DHSM, dihydrostreptomycin]
mechanically induced (evoked) currents [1]: antagonized reversibly; also recorded: reversibly blocked
mechanically induced (evoked) currents [2]: antagonized reversibly; also recorded: reversibly blocked

B1: Dkk1: recombinant mouse Dickkopf related protein 1, Wnt inhibitor (protein, UniProt O54908 32-272, looked up)
Dickkopf-related protein 1: TLNSVLINSNAIKNLPPPLGGAGGQPGSAVSVAPGVLYEGGNKYQTLDNYQPYPCAEDEECGSDEYCSSPSRGAAGVGGVQICLACRKRRKRCMRHAMCCPGNYCKNGICMPSDHSHFPRGEIEESIIENLGNDHNAAAGDGYPRRTTLTSKIYHTKGQEGSVCLRSSDCAAGLCCARHFWSKICKPVLKEGQVCTKHKRKGSHGLEIFQRCYCGEGLACRIQKDHHQASNSSRLHTCQRH
number of Brachyury-positive cells, factor alone [3]: significantly reduced
Brachyury-expressing cell population, factor alone [4]: significantly reduce
